Key:
[1] = target: Alpha-1B adrenergic receptor (Homo sapiens) (UniProt P35368); conditions: Compound concentration 10.0 uM, tested as the 2H-labelled form
[2] = target: Tyrosine-protein kinase Lyn (Homo sapiens) (UniProt P07948); test: Lyn(h) Kinase panel; conditions: Compound concentration 1.0 uM, tested as the 2H-labelled form
[3] = target: Serine/threonine-protein kinase 35 (Homo sapiens) (UniProt Q8TDR2); test: CLIK1(h) Kinase panel; conditions: Compound concentration 1.0 uM, tested as the 2H-labelled form
[4] = target: Calcium/calmodulin-dependent protein kinase kinase 2 (Homo sapiens) (UniProt Q96RR4); test: CaMKK2(h) Kinase panel; conditions: Compound concentration 1.0 uM, tested as the 2H-labelled form
[5] = target: PAS domain-containing serine/threonine-protein kinase (Homo sapiens) (UniProt Q96RG2); test: PASK(h) Kinase panel; conditions: Compound concentration 1.0 uM, tested as the 2H-labelled form
[6] = target: Serine/threonine-protein kinase tousled-like 2 (Homo sapiens) (UniProt Q86UE8); test: TLK2(h) Kinase panel; conditions: Compound concentration 1.0 uM, tested as the 2H-labelled form
[7] = target: Homeodomain-interacting protein kinase 1 (Homo sapiens) (UniProt Q86Z02); test: HIPK1(h) Kinase panel; conditions: Compound concentration 1.0 uM, tested as the 2H-labelled form
[8] = target: Serine/threonine-protein kinase WNK4 (Homo sapiens) (UniProt Q96J92); test: WNK4(h) Kinase panel; conditions: Compound concentration 1.0 uM, tested as the 2H-labelled form
[9] = target: Serine/threonine-protein kinase BRSK1 (Homo sapiens) (UniProt Q8TDC3); test: BrSK1(h) Kinase panel; conditions: Compound concentration 1.0 uM, tested as the 2H-labelled form
[10] = target: Serine/threonine-protein kinase BRSK2 (Homo sapiens) (UniProt Q8IWQ3); test: BrSK2(h) Kinase panel; conditions: Compound concentration 1.0 uM, tested as the 2H-labelled form
[11] = target: Serine/threonine-protein kinase TBK1 (Homo sapiens) (UniProt Q9UHD2); test: TBK1(h) Kinase panel; conditions: Compound concentration 1.0 uM, tested as the 2H-labelled form
[12] = target: Mitogen-activated protein kinase kinase kinase 7 (Homo sapiens) (UniProt O43318); test: TAK1(h) Kinase panel; conditions: Compound concentration 1.0 uM, tested as the 2H-labelled form
[13] = target: BDNF/NT-3 growth factors receptor (Homo sapiens) (UniProt Q16620); test: TrkB(h) Kinase panel; conditions: Compound concentration 1.0 uM, tested as the 2H-labelled form
[14] = target: Sigma intracellular receptor 2 (Homo sapiens) (UniProt Q5BJF2); conditions: Compound concentration 10.0 uM, tested as the 2H-labelled form
Sigma intracellular receptor 2 (Homo sapiens), sequence (Q5BJF2 whole entry): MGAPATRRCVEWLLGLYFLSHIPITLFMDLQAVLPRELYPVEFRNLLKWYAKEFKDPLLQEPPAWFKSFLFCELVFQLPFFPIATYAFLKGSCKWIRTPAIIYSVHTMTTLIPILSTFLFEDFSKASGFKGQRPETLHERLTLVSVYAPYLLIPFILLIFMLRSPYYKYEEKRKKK

[15] = target: Protein kinase C eta type (Homo sapiens) (UniProt P24723); test: PKCeta (h) Kinase panel; conditions: Compound concentration 1.0 uM, tested as the 2H-labelled form
[16] = target: Phosphatidylinositol 4,5-bisphosphate 3-kinase catalytic subunit delta isoform (Homo sapiens) (UniProt O00329); test: PI3 Kinase (p110d/p85a)(h) Kinase panel; conditions: Compound concentration 1.0 uM, tested as the 2H-labelled form
Phosphatidylinositol 4,5-bisphosphate 3-kinase catalytic subunit delta isoform (Homo sapiens), sequence (O00329 whole entry, canonical isoform): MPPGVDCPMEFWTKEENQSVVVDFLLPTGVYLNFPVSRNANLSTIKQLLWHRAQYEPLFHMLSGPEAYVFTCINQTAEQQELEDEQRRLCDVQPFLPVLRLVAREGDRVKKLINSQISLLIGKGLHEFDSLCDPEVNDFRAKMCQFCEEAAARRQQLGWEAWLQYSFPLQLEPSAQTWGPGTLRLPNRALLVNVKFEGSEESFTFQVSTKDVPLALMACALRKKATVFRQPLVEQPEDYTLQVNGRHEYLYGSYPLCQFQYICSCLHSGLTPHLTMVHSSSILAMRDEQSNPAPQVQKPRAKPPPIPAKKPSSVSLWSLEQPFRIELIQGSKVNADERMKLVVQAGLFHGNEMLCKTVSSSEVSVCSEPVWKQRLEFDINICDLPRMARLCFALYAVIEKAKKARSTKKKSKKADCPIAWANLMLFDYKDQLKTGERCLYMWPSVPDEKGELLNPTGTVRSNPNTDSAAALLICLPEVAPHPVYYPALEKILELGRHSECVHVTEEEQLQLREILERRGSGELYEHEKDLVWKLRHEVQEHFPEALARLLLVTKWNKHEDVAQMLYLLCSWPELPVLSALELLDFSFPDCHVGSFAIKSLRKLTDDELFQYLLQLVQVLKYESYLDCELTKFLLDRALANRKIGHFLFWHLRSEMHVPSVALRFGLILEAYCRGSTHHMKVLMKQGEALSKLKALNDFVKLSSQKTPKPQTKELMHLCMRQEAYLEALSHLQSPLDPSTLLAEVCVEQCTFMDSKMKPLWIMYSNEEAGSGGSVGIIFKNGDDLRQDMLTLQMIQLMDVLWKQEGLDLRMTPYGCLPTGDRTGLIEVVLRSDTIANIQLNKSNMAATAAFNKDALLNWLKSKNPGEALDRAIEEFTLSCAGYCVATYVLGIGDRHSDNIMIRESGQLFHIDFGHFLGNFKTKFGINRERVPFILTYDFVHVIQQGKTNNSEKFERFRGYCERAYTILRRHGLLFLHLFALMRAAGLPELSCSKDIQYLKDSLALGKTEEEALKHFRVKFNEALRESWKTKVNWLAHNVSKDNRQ

[17] = target: Testis-specific serine/threonine-protein kinase 3 (Homo sapiens) (UniProt Q96PN8); test: TSSK3(h) Kinase panel; conditions: Compound concentration 1.0 uM, tested as the 2H-labelled form
[18] = target: Cyclin-dependent kinase 17 (Homo sapiens) (UniProt Q00537); test: CDK17/cyclinY(h) Kinase panel; conditions: Compound concentration 1.0 uM, tested as the 2H-labelled form
[19] = target: Histamine H3 receptor (Homo sapiens) (UniProt Q9Y5N1); conditions: Compound concentration 10.0 uM, tested as the 2H-labelled form
[20] = target: cGMP-dependent protein kinase 1 (Homo sapiens) (UniProt Q13976); test: PKG1alpha (h) Kinase panel; conditions: Compound concentration 1.0 uM, tested as the 2H-labelled form
[21] = target: Serine/threonine-protein kinase Nek1 (Homo sapiens) (UniProt Q96PY6); test: NEK1(h) Kinase panel; conditions: Compound concentration 1.0 uM, tested as the 2H-labelled form
[22] = target: D(4) dopamine receptor (Homo sapiens) (UniProt P21917); conditions: Compound concentration 10.0 uM, tested as the 2H-labelled form
[23] = target: Ephrin type-B receptor 2 (Homo sapiens) (UniProt P29323); test: EphB2(h) Kinase panel; conditions: Compound concentration 1.0 uM, tested as the 2H-labelled form
[24] = target: Tribbles homolog 2 (Homo sapiens) (UniProt Q92519); test: TRB2(h) Kinase panel; conditions: Compound concentration 1.0 uM, tested as the 2H-labelled form
[25] = target: Serine/threonine-protein kinase D2 (Homo sapiens) (UniProt Q9BZL6); test: PKD2(h) Kinase panel; conditions: Compound concentration 1.0 uM, tested as the 2H-labelled form
Serine/threonine-protein kinase D2 (Homo sapiens), sequence (Q9BZL6 whole entry): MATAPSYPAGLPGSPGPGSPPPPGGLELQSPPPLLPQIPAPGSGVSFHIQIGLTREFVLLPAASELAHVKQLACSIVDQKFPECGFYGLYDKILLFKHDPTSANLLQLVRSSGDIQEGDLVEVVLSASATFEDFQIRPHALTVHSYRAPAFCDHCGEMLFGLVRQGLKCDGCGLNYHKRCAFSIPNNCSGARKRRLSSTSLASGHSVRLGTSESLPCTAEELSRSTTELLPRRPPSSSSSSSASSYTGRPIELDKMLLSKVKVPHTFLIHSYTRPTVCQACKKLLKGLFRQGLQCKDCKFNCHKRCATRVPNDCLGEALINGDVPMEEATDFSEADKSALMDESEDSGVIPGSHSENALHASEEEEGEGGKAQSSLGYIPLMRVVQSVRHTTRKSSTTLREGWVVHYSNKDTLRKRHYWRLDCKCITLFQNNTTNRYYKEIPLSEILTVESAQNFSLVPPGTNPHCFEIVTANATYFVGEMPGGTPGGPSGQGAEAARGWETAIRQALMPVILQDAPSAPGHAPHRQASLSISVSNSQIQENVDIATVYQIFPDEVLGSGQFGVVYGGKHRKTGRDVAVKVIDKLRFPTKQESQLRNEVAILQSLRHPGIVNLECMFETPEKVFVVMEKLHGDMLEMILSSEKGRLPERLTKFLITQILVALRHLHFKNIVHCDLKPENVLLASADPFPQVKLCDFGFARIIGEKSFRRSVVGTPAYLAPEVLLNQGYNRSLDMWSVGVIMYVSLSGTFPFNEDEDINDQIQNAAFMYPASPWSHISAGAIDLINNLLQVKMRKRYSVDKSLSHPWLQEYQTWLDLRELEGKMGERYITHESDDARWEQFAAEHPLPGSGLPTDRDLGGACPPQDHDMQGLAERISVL

[26] = target: Tyrosine-protein kinase TXK (Homo sapiens) (UniProt P42681); test: Txk(h) Kinase panel; conditions: Compound concentration 1.0 uM, tested as the 2H-labelled form
[27] = target: Mitogen-activated protein kinase 14 (Homo sapiens, UniProt Q16539); test: SAPK2a(h) Kinase panel; conditions: Compound concentration 1.0 uM, tested as the 2H-labelled form
Mitogen-activated protein kinase 14, sequence (Q16539 whole entry): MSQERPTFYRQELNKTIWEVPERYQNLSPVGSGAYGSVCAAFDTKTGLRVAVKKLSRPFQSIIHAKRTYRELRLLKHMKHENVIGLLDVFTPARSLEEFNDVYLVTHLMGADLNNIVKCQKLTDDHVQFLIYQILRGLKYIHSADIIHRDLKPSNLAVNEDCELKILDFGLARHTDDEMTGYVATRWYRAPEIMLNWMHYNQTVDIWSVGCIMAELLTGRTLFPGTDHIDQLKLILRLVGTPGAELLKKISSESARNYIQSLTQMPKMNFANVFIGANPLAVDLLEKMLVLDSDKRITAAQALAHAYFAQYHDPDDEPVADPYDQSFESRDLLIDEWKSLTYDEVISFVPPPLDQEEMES

[28] = target: Serine/threonine-protein kinase MARK2 (Homo sapiens) (UniProt Q7KZI7); test: PAR-1Balpha(h) Kinase panel; conditions: Compound concentration 1.0 uM, tested as the 2H-labelled form
[29] = target: Glycogen synthase kinase-3 beta (Homo sapiens) (UniProt P49841); test: GSK3β(h) Kinase panel; conditions: Compound concentration 1.0 uM, tested as the 2H-labelled form
[30] = target: Serine/threonine-protein kinase 32B (Homo sapiens) (UniProt Q9NY57); test: STK32B(h) Kinase panel; conditions: Compound concentration 1.0 uM, tested as the 2H-labelled form
Serine/threonine-protein kinase 32B (Homo sapiens), sequence (Q9NY57 whole entry): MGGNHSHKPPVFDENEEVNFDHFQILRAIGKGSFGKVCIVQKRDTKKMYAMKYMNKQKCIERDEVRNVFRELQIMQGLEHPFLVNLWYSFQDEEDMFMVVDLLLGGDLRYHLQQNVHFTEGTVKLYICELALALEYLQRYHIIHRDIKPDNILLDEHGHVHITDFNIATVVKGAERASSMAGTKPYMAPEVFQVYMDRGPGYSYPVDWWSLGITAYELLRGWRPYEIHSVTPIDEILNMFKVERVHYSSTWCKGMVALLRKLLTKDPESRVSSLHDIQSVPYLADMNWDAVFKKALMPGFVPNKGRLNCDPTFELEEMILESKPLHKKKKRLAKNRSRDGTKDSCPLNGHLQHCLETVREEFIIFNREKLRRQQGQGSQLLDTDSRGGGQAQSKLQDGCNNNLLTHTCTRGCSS

[31] = target: Ephrin type-A receptor 8 (Homo sapiens) (UniProt P29322); test: EphA8(h) Kinase panel; conditions: Compound concentration 1.0 uM, tested as the 2H-labelled form
[32] = target: Vascular endothelial growth factor receptor 3 (Homo sapiens) (UniProt P35916); test: Flt4(h) Kinase panel; conditions: Compound concentration 1.0 uM, tested as the 2H-labelled form
[33] = target: Cyclin-dependent kinase 4 (Homo sapiens) (UniProt P11802); test: CDK4/cyclinD3(h) Kinase panel; conditions: Compound concentration 1.0 uM, tested as the 2H-labelled form
[34] = target: Epithelial discoidin domain-containing receptor 1 (Homo sapiens) (UniProt Q08345); test: DDR1(h) Kinase panel; conditions: Compound concentration 1.0 uM, tested as the 2H-labelled form
Epithelial discoidin domain-containing receptor 1 (Homo sapiens), sequence (Q08345 whole entry, the tested form may be a part): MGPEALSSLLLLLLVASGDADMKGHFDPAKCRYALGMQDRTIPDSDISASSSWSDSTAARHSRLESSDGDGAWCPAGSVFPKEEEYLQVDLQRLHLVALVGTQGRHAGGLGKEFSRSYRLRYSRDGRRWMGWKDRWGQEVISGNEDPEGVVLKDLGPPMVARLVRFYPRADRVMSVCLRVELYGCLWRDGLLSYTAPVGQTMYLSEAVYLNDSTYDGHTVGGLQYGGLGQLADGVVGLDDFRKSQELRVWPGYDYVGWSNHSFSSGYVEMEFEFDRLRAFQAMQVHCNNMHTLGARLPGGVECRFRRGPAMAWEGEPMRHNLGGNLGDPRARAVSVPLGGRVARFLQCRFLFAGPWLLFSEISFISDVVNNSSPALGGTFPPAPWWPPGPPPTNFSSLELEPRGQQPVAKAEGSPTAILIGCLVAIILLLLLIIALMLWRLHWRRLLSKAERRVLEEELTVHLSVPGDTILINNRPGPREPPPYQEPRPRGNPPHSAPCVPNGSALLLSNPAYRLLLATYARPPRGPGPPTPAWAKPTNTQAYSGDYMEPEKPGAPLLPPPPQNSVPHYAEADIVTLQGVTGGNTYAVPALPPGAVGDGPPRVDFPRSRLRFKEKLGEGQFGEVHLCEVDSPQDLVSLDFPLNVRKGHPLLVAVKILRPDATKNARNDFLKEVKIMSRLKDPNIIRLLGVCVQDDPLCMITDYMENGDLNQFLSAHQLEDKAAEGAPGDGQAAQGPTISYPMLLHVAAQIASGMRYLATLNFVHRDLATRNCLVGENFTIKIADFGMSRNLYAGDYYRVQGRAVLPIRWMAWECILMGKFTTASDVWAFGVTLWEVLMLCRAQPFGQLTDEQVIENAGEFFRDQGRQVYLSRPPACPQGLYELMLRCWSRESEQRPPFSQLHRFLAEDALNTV

[35] = target: Protein kinase C gamma type (Homo sapiens) (UniProt P05129); test: PKCgamma(h) Kinase panel; conditions: Compound concentration 1.0 uM, tested as the 2H-labelled form
[36] = target: Serine/threonine-protein kinase A-Raf (Homo sapiens) (UniProt P10398); test: A-Raf(h) Kinase panel; conditions: Compound concentration 1.0 uM, tested as the 2H-labelled form
[37] = target: Cyclin-dependent kinase 5 (Homo sapiens) (UniProt Q00535); test: CDK5/p25(h) Kinase panel; conditions: Compound concentration 1.0 uM, tested as the 2H-labelled form
Cyclin-dependent kinase 5 (Homo sapiens), sequence (Q00535 whole entry, looked up): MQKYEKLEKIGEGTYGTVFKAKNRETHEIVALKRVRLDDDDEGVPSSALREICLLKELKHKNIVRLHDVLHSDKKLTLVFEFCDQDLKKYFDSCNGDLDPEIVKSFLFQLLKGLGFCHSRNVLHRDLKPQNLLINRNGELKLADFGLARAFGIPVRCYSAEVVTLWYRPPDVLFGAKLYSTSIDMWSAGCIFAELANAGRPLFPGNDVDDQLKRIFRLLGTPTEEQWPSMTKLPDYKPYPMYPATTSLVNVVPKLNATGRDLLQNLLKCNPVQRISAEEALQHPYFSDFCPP

[38] = target: Serine/threonine-protein kinase MRCK gamma (Homo sapiens) (UniProt Q6DT37); test: MRCKgamma(h) Kinase panel; conditions: Compound concentration 1.0 uM, tested as the 2H-labelled form
[39] = target: Cyclin-dependent kinase 14 (Homo sapiens) (UniProt O94921); test: CDK14/cyclinY(h) Kinase panel; conditions: Compound concentration 1.0 uM, tested as the 2H-labelled form
[40] = target: Serine/threonine-protein kinase TAO1 (Homo sapiens) (UniProt Q7L7X3); test: TAO1(h) Kinase panel; conditions: Compound concentration 1.0 uM, tested as the 2H-labelled form
[41] = target: Calcium/calmodulin-dependent protein kinase type 1D (Homo sapiens) (UniProt Q8IU85); test: CaMKIdelta(h) Kinase panel; conditions: Compound concentration 1.0 uM, tested as the 2H-labelled form
[42] = target: Serine/threonine-protein kinase N1 (Homo sapiens) (UniProt Q16512); test: PRK1(h) Kinase panel; conditions: Compound concentration 1.0 uM, tested as the 2H-labelled form
[43] = target: Dual specificity protein kinase CLK4 (Homo sapiens) (UniProt Q9HAZ1); test: CLK4(h) Kinase panel; conditions: Compound concentration 1.0 uM, tested as the 2H-labelled form
[44] = target: RAF proto-oncogene serine/threonine-protein kinase (Homo sapiens) (UniProt P04049); test: c-RAF(h) Kinase panel; conditions: Compound concentration 1.0 uM, tested as the 2H-labelled form
[45] = target: Phosphorylase b kinase gamma catalytic chain, testis/liver isoform (Homo sapiens) (UniProt P15735); test: PhKgamma2(h) Kinase panel; conditions: Compound concentration 1.0 uM, tested as the 2H-labelled form
Phosphorylase b kinase gamma catalytic chain, testis/liver isoform (Homo sapiens), sequence (P15735 whole entry, looked up, canonical isoform): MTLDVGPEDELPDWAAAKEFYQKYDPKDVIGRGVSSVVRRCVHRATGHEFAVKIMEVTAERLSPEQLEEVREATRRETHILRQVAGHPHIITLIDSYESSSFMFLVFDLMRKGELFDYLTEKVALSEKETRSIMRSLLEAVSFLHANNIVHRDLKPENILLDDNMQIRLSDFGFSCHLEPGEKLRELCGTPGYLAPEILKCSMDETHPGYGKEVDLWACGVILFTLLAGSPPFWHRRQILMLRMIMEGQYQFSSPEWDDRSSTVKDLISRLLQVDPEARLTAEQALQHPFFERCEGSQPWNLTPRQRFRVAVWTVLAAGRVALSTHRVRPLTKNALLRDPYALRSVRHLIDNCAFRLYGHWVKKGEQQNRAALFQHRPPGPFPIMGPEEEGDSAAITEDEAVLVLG

[46] = target: 5-hydroxytryptamine receptor 5A (Homo sapiens) (UniProt P47898); conditions: Compound concentration 10.0 uM, tested as the 2H-labelled form
[47] = target: Testis-specific serine/threonine-protein kinase 2 (Homo sapiens) (UniProt Q96PF2); test: TSSK2(h) Kinase panel; conditions: Compound concentration 1.0 uM, tested as the 2H-labelled form
Testis-specific serine/threonine-protein kinase 2 (Homo sapiens), sequence (Q96PF2 whole entry): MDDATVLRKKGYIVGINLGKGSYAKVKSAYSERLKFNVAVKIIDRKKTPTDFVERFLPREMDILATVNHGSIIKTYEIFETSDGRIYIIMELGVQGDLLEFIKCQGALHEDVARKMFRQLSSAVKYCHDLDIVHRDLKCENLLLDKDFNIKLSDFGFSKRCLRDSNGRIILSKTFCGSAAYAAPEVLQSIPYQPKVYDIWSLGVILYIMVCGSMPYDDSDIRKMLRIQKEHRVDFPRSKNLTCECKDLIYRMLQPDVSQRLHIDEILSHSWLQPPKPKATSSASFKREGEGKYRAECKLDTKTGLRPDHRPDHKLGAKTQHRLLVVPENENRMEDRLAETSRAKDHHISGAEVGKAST

[48] = target: Serine/threonine-protein kinase ULK3 (Homo sapiens) (UniProt Q6PHR2); test: ULK3(h) Kinase panel; conditions: Compound concentration 1.0 uM, tested as the 2H-labelled form
[49] = target: Platelet-derived growth factor receptor beta (Homo sapiens) (UniProt P09619); test: PDGFRbeta(h) Kinase panel; conditions: Compound concentration 1.0 uM, tested as the 2H-labelled form
[50] = target: Ephrin type-A receptor 2 (Homo sapiens) (UniProt P29317); test: EphA2(h) Kinase panel; conditions: Compound concentration 1.0 uM, tested as the 2H-labelled form
[51] = target: Tyrosine-protein kinase Srms (Homo sapiens) (UniProt Q9H3Y6); test: SRMS(h) Kinase panel; conditions: Compound concentration 1.0 uM, tested as the 2H-labelled form

Measured: inhibition

CC1(C)Cn2nc(-c3ccc(F)cn3)c(-c3ccnc4[nH]ncc34)c2CO1
inactive: [1] 1.82% | [2] 21% | [3] 13% | [4] -9% | [5] 24% | [6] 12% | [7] 3% | [8] 10% | [9] 13% | [10] -2% | [11] 24% | [12] -5% | [13] -5% | [14] -3% | [15] 19% | [16] 2% | [17] 2% | [18] 6% | [19] -1.16% | [20] -9% | [21] 5% | [22] -5.66% | [23] 3% | [24] -2% | [25] 5% | [26] 16% | [27] 12% | [28] 15% | [29] 4% | [30] 0% | [31] 2% | [32] 7% | [33] 13% | [34] 11% | [35] 3% | [36] 12% | [37] 20% | [38] 3% | [39] 9% | [40] -5% | [41] -1% | [42] 9% | [43] 15% | [44] 12% | [45] -9% | [46] 3.27% | [47] 11% | [48] 12% | [49] -9% | [50] 17% | [51] 6%
